US20150018398A1, “METHODS OF USING ESTROGEN RECEPTOR-BETA LIGANDS AS RADIATION MITIGATORS” (The Regents of the University of California, priority 2013, published 2015)
Entries after “also recorded” stand apart in the source; their conditions may differ.

Experiments:
[1] = tested on: normal human bronchial epithelial (NHBE) cells; assay: Cell viability after irradiation (NHBE cells); assay type: cell-based; conditions: 5 nM for 2 h before irradiation (2 Gy), up to 48 h
Excerpt: An additional experiment was done using normal human bronchial epithelial (NHBE) cells (see FIG. 7). […] These collective findings support the underlying hypothesis on the role of ERβ signaling in modulating radiation sensitivity.

C57/BL6 mice = assay: Survival after lethal TBI, C57/BL6 mice; assay type: in vivo; conditions: male C57/BL6 mice; 8.5 Gy TBI; DPN 10 mg/kg SC or ERB-041 50 mg/kg oral gavage daily for 5 days starting 24 hours after TBI; 30 days
Excerpt: FIG. 15. […] Mice (n=8/group) received 8.5 Gy TBI. […] Controls received appropriate vehicle treatment (e.g. SC [CON SC] or OG [CON OG].
To validate our results above using a different animal model, we used C57/BL6 mice that were also bred and maintained in our AALAC-accredited animal facilities. As above, the UCLA ARC approved all studies. Male mice, 9 weeks-old, in a well-ventilated Lucite chamber without anesthesia received 8.5 Gy TBI from a Gamma Cell 40 irradiator (^137Cs source; Atomic Energy of Canada) at a dose rate of 67 cGy/min. […] Mice were monitored for 30 days using standard criteria for humane euthanasia as an endpoint and weights were recorded twice/week. […] These preliminary findings (FIGS. 14 & 15) provide good evidence to pursue further investigation of ERβ ligands as radiation mitigators.

[2] = in vivo; cited from earlier work
[3] = tested on: radiation-damaged reporter DNA in H23 lung cells; assay: Reporter DNA repair assay; assay type: cell-based, human; conditions: 24 h after transfection, 2 nM E2, 0.5 nM DPN or ERB
Excerpt: FIG. 9. […] 15; 59(6):1347-55); data are from 3 experiments (mean±SEM).

C3H mice = assay: Survival after lethal TBI, C3H mice; assay type: in vivo; conditions: for lethality and survival after TBI: male C3H mice, 7.725 Gy TBI, DPN 10 mg/kg SC or ERB-041 50 mg/kg oral gavage daily for 5 days starting 24 h after TBI
Excerpt: C3H mice were bred and maintained in a strict defined-flora, pathogen-free environment in the AALAC-accredited animal facilities. The UCLA ARC approved all experiments which were done in accord with all local and national guidelines for care and use of animals. Male mice, 9-10 wks old, received 7.725 Gy TBI from a Gamma Cell 40 irradiator (^137Cs source; Atomic Energy of Canada) at a dose rate of 67 cGy/min. […] Mice were monitored for up to 60 days using standard criteria for humane euthanasia as an endpoint and weights were recorded twice/week.

[4] = tested on: human vascular endothelial cells (HUVEC); assay: Cell survival after irradiation, drug given 24 h after RT (HUVEC); assay type: cell-based; conditions: for cell survival post-radiation (radiation mitigation): HUVEC, treatment at 24 hours after irradiation, P<0.001
Excerpt: (§1) FIGS. 6A-6B. […] 15; 59(6):1347-55).
(§2) ER-selective ligands increase survival of epithelial and endothelial cells post-radiation.

[5] = tested on: H23 lung epithelial cells; assay: Cell survival after irradiation (H23 lung epithelial cells); assay type: cell-based, human; conditions: P<0.001; for lung cell survival post-radiation: H23, pre-treatment before irradiation
Excerpt: as §1, §2

ERα = biological target: T1, ERα (Homo sapiens, UniProt P03372); conditions: Harrington et al. 2003; cited from earlier work
T1 sequence (P03372 1-595): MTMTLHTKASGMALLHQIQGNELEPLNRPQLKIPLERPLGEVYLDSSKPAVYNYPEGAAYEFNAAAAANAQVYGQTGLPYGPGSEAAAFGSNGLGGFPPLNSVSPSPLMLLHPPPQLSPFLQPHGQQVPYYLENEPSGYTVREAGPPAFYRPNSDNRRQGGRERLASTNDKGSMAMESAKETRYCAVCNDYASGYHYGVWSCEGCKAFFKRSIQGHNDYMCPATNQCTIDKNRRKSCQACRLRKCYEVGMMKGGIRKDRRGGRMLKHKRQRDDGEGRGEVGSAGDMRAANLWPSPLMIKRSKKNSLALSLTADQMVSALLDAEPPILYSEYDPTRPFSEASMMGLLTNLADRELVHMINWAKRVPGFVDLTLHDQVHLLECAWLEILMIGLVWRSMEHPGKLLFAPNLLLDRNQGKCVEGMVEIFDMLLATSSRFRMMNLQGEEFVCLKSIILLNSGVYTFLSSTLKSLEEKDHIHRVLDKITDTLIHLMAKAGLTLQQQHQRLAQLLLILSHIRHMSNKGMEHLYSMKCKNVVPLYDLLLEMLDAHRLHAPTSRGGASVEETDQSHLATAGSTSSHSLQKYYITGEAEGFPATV

[6] = tested on: MDM2 in A549 lung epithelial cells; assay: MDM2 expression by Western blot; assay type: cell-based, human; conditions: E2 10 nM, DPN or PPT 1 μM for 24 h
Excerpt: Estrogens modulate MDM2 expression in lung cells. MDM2 is well known to bind and inhibit p53 FIG. 3). ERα binds and regulates the MDM2 promoter to stimulate MDM2 expression (see FIG. 12). Indeed, MDM2 SNP309 is reported to occur in an ER binding region of the MDM2 promoter, and affected individuals with SNP309 have increased MDM2 levels mediated by estrogen signaling (33,34).

[7] = tested on: phospho-serine-1981-ATM (PS-ATM) in A549 cells; assay: RT-induced ATM activation (PS-ATM staining); assay type: cell-based, human; conditions: treated 2 h, 5 Gy, stained 2 h after radiation, E2 10 nM, DPN/PPT 1 μM
Description: Phosphoryaltion of ATM is a critical first step in cell responses to RT (FIG. 3). Lung cells treated with control or estrogen for 2 hr were then irradiated and examined after 2 h for ATM activation (FIG. 10).

lung cells = assay: TUNEL assay of apoptosis after RT; assay type: cell-based; conditions: E2 10 nM, DPN 1 μM, PPT 1 μM for 2 h, then 15 Gy, TUNEL after 48 h
Excerpt: Cell death is a measurable outcome due to significant radiation injury.

[8] = tested on: sublethally-irradiated mice; conditions: treatment 24 h before RT; cited from earlier work
[9] = tested on: VEGF secretion by H23 lung epithelial cells; assay: VEGF secretion by ELISA after irradiation; assay type: cell-based, human; conditions: for VEGF secretion after irradiation: H23, treated 2 hrs before irradiation (10 Gy), ELISA after 24 hrs; for increase in vascular endothelial growth factor (VEGF) secretion: lung epithelial cells pre-treated (E2 2 nM, DPN 5 nM, 2 hrs) before irradiation (10 Gy), P<0.001
[10] = tested on: H23 lung epithelial cells with ERβ silencing (ERbKD); assay: Cell survival after irradiation with ERβ siRNA knockdown; assay type: cell-based, human; conditions: lung epithelial cells treated with siRNA to suppress ERβ expression
Description: FIG. 8. H23 lung epithelial cells were transfected with control non-specific siRNAs (CON) or smart-pool ESR2 [ERβ] siRNA for ERβ silencing (ERbKD) as before (31,32); control cells were then treated with or without estradiol (E2) and compared with ERbKD cells treated with estradiol for 2 hrs before irradiation at 0-15 Gy as indicated in the figure (n=3 experiments); surviving cell fractions (%) are plotted on a log scale at increasing radiation doses.
To further assess the role of ERβ as a radioprotector and potential radiation mitigator, lung epithelial cells were treated with small inhibitory RNAs (siRNA) to suppress ERβ expression using established methods (Márquez-Garbán D C, Chen H W, Fishbein M C, Goodglick L, Pietras R J. Steroids. 2007 February; 72(2):135-43. Epub 2007 Feb. 5; Márquez D C, Chen H W, Curran E M, Welshons W V, Pietras R J. Mol Cell Endocrinol. 2006 Feb. 26; 246(1-2):91-100. Epub 2006 Jan. 4). […] Thus, ERβ appears to play a critical role in mediating effects of estrogen post-irradiation.

[11] = tested on: ERβ-EGFR interaction in H23 lung tumor cells; assay: ERβ-EGFR co-immunoprecipitation; assay type: cell-based, human; conditions: DPN treatment
Description: EGF stimulates ERβ-EGFR interaction in epithelial cells. To assess the idea that ERβ interacts with EGFR to promote cross-talk in signaling, the association of these molecules in co-immunoprecipitation studies was tested in vitro (Márquez D C, Lee J, Lin T, Pietras R J. Endocrine. 2001 November; 16(2):73-81) (FIG. 4).

| SMILES | cell viability / protection from radiation injury ([1]; P<0.001) | lethality and survival after TBI (C57/BL6 mice) | repair of radiation-damaged reporter DNA [3] | lethality and survival after TBI (C3H mice) | cell survival post-radiation (radiation mitigation) [4] | lung cell survival post-radiation [5] | MDM2 levels [6] | ATM phosphorylation at serine 1981 (nuclear clustering of PS-ATM) after irradiation [7] | radiation-induced apoptosis (lung cells) | VEGF secretion after irradiation [9] | increase in vascular endothelial growth factor (VEGF) secretion [9] | radioprotective / radiation mitigator effect in cells with ERβ knockdown [10] | other results |
| --- | --- | --- | --- | --- | --- | --- | --- | --- | --- | --- | --- | --- | --- |
| C=Cc1cc(O)cc2nc(-c3ccc(O)c(F)c3)oc12 [ERB-041, (4Z)-4-(7-ethenyl-5-hydroxy-3H-1,3-benzoxazol-2-ylidene)-2-fluorocyclohexa-2,5-dien-1-one] | protect normal epithelial cells from radiation injury | somewhat less efficacious as a radiation mitigator | stimulation of enhanced DNA repair after irradiation | somewhat less efficacious as a radiation mitigator | mitigates these effects in HUVEC cells | dose-dependent increase in lung cell survival post-radiation |  |  |  |  |  |  | cell viability / protection from radiation injury ([1]; P<0.001, listed as ERB): significantly different from control; oral bioavailability [2]: notable oral bioavailability |
| CCCc1c(-c2ccc(O)cc2)nn(-c2ccc(O)cc2)c1-c1ccc(O)cc1 [PPT, Propylpryazoletriol] |  |  |  |  |  |  | stimulate MDM2 levels | not | showed efficacy in suppressing radiation-induced apoptosis |  |  |  | ERα agonism (ERα): potent ERα agonist |
| O=c1c(-c2ccc(O)cc2)coc2cc(O)cc(O)c12 [Genistein] |  |  |  |  |  |  |  |  |  |  |  |  | survival of irradiated mice [8]: increased survival without other significant toxicity |
| C[C@]12CC[C@@H]3c4ccc(O)cc4CC[C@H]3[C@@H]1CC[C@@H]2O [E2, estradiol-17β] |  |  | stimulation of enhanced DNA repair after irradiation |  |  |  | stimulate MDM2 levels | increased | showed efficacy in suppressing radiation-induced apoptosis | stimulate high levels of VEGF secretion | 2 fold | failed to show a radioprotective effect | repair of radiation-damaged reporter DNA ([3]; listed as Estrogen): stimulate repair of radiation-damaged reporter DNA |
| N#CC(Cc1ccc(O)cc1)c1ccc(O)cc1 (stereo not shown) [DPN, 2,3-bis[4-hydroxyphenyl]-propionitrile] | protect normal epithelial cells from radiation injury; also recorded: significantly different from control | protects mice from lethality and improves survival | stimulation of enhanced DNA repair after irradiation; also recorded: stimulates repair of radiation-damaged reporter DNA | protected mice from lethality and improved survival | mitigates these effects in HUVEC cells | dose-dependent increase in lung cell survival post-radiation |  |  | showed efficacy in suppressing radiation-induced apoptosis; also recorded: reduce radiation-induced apoptosis | stimulate high levels of VEGF secretion | 2 fold | abolished | interaction of ER-beta with EGFR [11]: promotes interaction of ERβ with EGFR; also recorded: promotes interaction of ER-beta with EGFR; VEGF secretion, treatment after irradiation ([9]; treatment at 24 hours after irradiation (10 Gy), vs controls P<0.001): comparable increase in VEGF secretion; also recorded: significant increase in VEGF secretion; post-irradiation survival (C3H mice; mouse models in vivo, subcutaneous, treatment started 24 hours after TBI): 100%; post-irradiation time window (C3H mice; radiation mitigator): > 24 h; Cell survival ([4]; normal human lung epithelial and vascular endothelial cells in vitro, treatment at 24-hr after irradiation, vs controls P<0.001): significantly improved in a dose-dependent fashion; effect as a radiation mitigator ([5]; H23 cells, treatment at 24 hrs after irradiation, two experiments): comparable effect as a radiation mitigator |
